The CheMixHub ionic liquid set
± gives the uncertainty stated by the source.

Assay: xn = mol fraction of the nth substance listed

CCCCCCCCn1cc[n+](C)c1.N#C[S-] + [Br-].[Li+] + CN1CCCC1=O
298.15 K, 101 kPa
Settings	viscosity [mPa·s]
x1 = 0.001194, x2 = 0.02592	2.51 ± 0.03
x1 = 0.001279, x2 = 0.05082	3.301 ± 0.039
x1 = 0.001363, x2 = 0.07495	4.627 ± 0.053
x1 = 0.002361, x2 = 0.07487	4.663 ± 0.054
x1 = 0.002564, x2 = 0.05075	3.33 ± 0.039
x1 = 0.002749, x2 = 0.02588	2.538 ± 0.031
x1 = 0.003543, x2 = 0.07478	4.688 ± 0.054
x1 = 0.003719, x2 = 0.05069	3.358 ± 0.04
x1 = 0.003898, x2 = 0.02585	2.568 ± 0.031
x1 = 0.004852, x2 = 0.05063	3.389 ± 0.04
x1 = 0.005129, x2 = 0.07466	4.714 ± 0.054
x1 = 0.00561, x2 = 0.02581	2.544 ± 0.031
x1 = 0.005681, x2 = 0.05059	3.416 ± 0.04
x1 = 0.006324, x2 = 0.07457	4.741 ± 0.055
x1 = 0.006743, x2 = 0.02578	2.6 ± 0.031
x1 = 0.007583, x2 = 0.07448	4.77 ± 0.055
x1 = 0.007954, x2 = 0.05048	3.441 ± 0.04
x1 = 0.008125, x2 = 0.02574	2.622 ± 0.032
x1 = 0.008906, x2 = 0.07438	4.799 ± 0.055
x1 = 0.009097, x2 = 0.05042	3.471 ± 0.041
x1 = 0.009222, x2 = 0.02572	2.651 ± 0.032
x1 = 0.009986, x2 = 0.05037	3.503 ± 0.041
x1 = 0.01013, x2 = 0.02569	2.674 ± 0.032
x1 = 0.01054, x2 = 0.07426	4.824 ± 0.056

CC[n+]1ccn(C)c1.N#C[S-] + [N-]=C=S.[NH4+]
100 kPa, x2 = 0
Settings	electrical conductivity [S/m]	viscosity [mPa·s]
323.15 K	4.38 ± 0.18	11.49 ± 0.54
348.15 K	–	6.87 ± 0.32
353.15 K	–	6.17 ± 0.29

CCCCCCCC[n+]1ccccc1.F[B-](F)(F)F + O
101.3 kPa
Settings	viscosity [mPa·s]
288.15 K, x2 = 0	447 ± 34
288.15 K, x2 = 0.1	289 ± 17
288.15 K, x2 = 0.184	192.6 ± 9
288.15 K, x2 = 0.324	121.3 ± 3.9
288.15 K, x2 = 0.477	89 ± 2
288.15 K, x2 = 0.67	50.65 ± 0.78
288.15 K, x2 = 0.758	37.8 ± 0.8
293.15 K, x2 = 0.1	213 ± 11
293.15 K, x2 = 0.184	145.6 ± 5.5
293.15 K, x2 = 0.324	94.1 ± 2.2
298.15 K, x2 = 0.67	32.69 ± 0.7
298.15 K, x2 = 0.758	23.24 ± 0.65
308.15 K, x2 = 0	134.8 ± 4.7
308.15 K, x2 = 0.783	15.11 ± 0.62
313.15 K, x2 = 0.562	19.43 ± 0.63
313.15 K, x2 = 0.67	18.67 ± 0.63
318.15 K, x2 = 0	81.6 ± 1.6
318.15 K, x2 = 0.324	32.19 ± 0.68
323.15 K, x2 = 0.324	27.26 ± 0.66
328.15 K, x2 = 0.1	38.44 ± 0.72
328.15 K, x2 = 0.184	30.98 ± 0.67
328.15 K, x2 = 0.758	8.61 ± 0.6
333.15 K, x2 = 0	45.28 ± 0.75
333.15 K, x2 = 0.1	32.1 ± 0.68
333.15 K, x2 = 0.184	26.18 ± 0.65
333.15 K, x2 = 0.758	7.63 ± 0.6
338.15 K, x2 = 0.67	9.23 ± 0.61
343.15 K, x2 = 0.324	15.05 ± 0.62
343.15 K, x2 = 0.67	7.99 ± 0.6
348.15 K, x2 = 0	27.77 ± 0.65
348.15 K, x2 = 0.477	10.05 ± 0.61

C1CN=C2CCCN2C1 + O=S(=O)([N-]S(=O)(=O)C(F)(F)F)C(F)(F)F.[Li+]
101 kPa, frequency 0 MHz, x1 = 0.8
Settings	electrical conductivity [S/m]
338.15 K	0.0385 ± 0.00043
368.15 K	0.152 ± 0.0036

101 kPa, x1 = 0.8
Settings	viscosity [mPa·s]
338.15 K	236 ± 13
368.15 K	37.77 ± 0.88

CCC(=O)[O-].CCOCCn1cc[n+](C)c1 + O
100 kPa
Settings	electrical conductivity [S/m]	viscosity [mPa·s]
288.15 K, x1 = 0.8211	0.244 ± 0.02	56.95 ± 0.62
288.15 K, x1 = 0.85	0.209 ± 0.02	62.86 ± 0.75
288.15 K, x1 = 0.8812	0.178 ± 0.02	69.98 ± 0.97
288.15 K, x1 = 0.9123	0.148 ± 0.02	77.3 ± 1.3
288.15 K, x1 = 0.9441	0.118 ± 0.02	85.4 ± 1.6
288.15 K, x1 = 1	0.067 ± 0.02	96.2 ± 2.1
293.15 K, x1 = 0.8211	0.285 ± 0.02	43.77 ± 0.57
293.15 K, x1 = 0.85	0.255 ± 0.02	48.37 ± 0.63
293.15 K, x1 = 0.8812	0.228 ± 0.02	53.31 ± 0.56
293.15 K, x1 = 0.9123	0.202 ± 0.02	58.97 ± 0.66
293.15 K, x1 = 0.9441	0.177 ± 0.02	64.74 ± 0.77
293.15 K, x1 = 1	0.132 ± 0.02	72.77 ± 0.96
298.15 K, x1 = 0.8211	0.332 ± 0.02	34.4 ± 0.51
298.15 K, x1 = 0.85	0.305 ± 0.02	37.68 ± 0.54
298.15 K, x1 = 0.8812	0.28 ± 0.02	41.51 ± 0.57
298.15 K, x1 = 0.9123	0.258 ± 0.02	45.4 ± 0.6
298.15 K, x1 = 0.9441	0.236 ± 0.02	49.8 ± 0.61
298.15 K, x1 = 1	0.196 ± 0.02	55.65 ± 0.48
303.15 K, x1 = 0.8211	0.425 ± 0.02	27.21 ± 0.47
303.15 K, x1 = 0.85	0.399 ± 0.02	29.76 ± 0.49
303.15 K, x1 = 0.8812	0.371 ± 0.02	32.63 ± 0.51
303.15 K, x1 = 0.9123	0.349 ± 0.02	35.7 ± 0.53
303.15 K, x1 = 0.9441	0.326 ± 0.02	39.01 ± 0.54
303.15 K, x1 = 1	0.285 ± 0.02	43.51 ± 0.52
308.15 K, x1 = 0.8211	0.539 ± 0.02	22.04 ± 0.45
308.15 K, x1 = 0.85	0.507 ± 0.02	23.97 ± 0.46
308.15 K, x1 = 0.8812	0.478 ± 0.02	26.44 ± 0.47
308.15 K, x1 = 0.9123	0.451 ± 0.02	28.78 ± 0.48
308.15 K, x1 = 0.9441	0.425 ± 0.02	30.96 ± 0.49
308.15 K, x1 = 1	0.378 ± 0.02	34.6 ± 0.48
313.15 K, x1 = 0.8211	0.647 ± 0.02	17.65 ± 0.43
313.15 K, x1 = 0.85	0.617 ± 0.02	19.48 ± 0.44
313.15 K, x1 = 0.8812	0.588 ± 0.02	21.34 ± 0.45
313.15 K, x1 = 0.9123	0.561 ± 0.02	22.96 ± 0.45
313.15 K, x1 = 0.9441	0.534 ± 0.02	24.58 ± 0.46
313.15 K, x1 = 1	0.488 ± 0.02	27.45 ± 0.45
318.15 K, x1 = 0.8211	0.775 ± 0.02	14.34 ± 0.42
318.15 K, x1 = 0.85	0.747 ± 0.02	15.58 ± 0.43
318.15 K, x1 = 0.8812	0.718 ± 0.02	17.15 ± 0.43
318.15 K, x1 = 0.9123	0.691 ± 0.02	18.49 ± 0.43
318.15 K, x1 = 0.9441	0.664 ± 0.02	19.86 ± 0.44
318.15 K, x1 = 1	0.619 ± 0.02	22.11 ± 0.44
